Results on two compounds are retold here after US7049331B2, “1,2,4-thiadiazole derivatives as melanocortin receptor modulators” (Ortho-McNeil Pharmaceutical, Inc., priority 2001, dated 2006).

Where two headings read alike, the source gives them in different places.

The test system of assay [1] is Cortical Cells. Put plainly: Neurite Cell Outgrowth Assay, cortical cells. The format is cell-based. The conditions noted are these: Rattus norvegicus; 50 nM; percent change over the vehicle response; NA = no change/not active. The gist of the method: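 Rat E18 hippocampal or cortical neurons plated at 30,000 cells/well, treated 24 h after plating with compound at 50 nM, refreshed on day 3. At one week, fixed and MAP-2 immunostained with FITC secondary, read by fluorescence; outgrowth given as percent change versus vehicle.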

Assay [2] concerns Male Long-Evans rats, facial nerve compression. As to the kind of experiment: In vivo Facial Nerve Compression Model. Also noted: species or system rat. Conditions: for Percent Recovery of whisker movement D9 / Percent Recovery of whisker movement D10 / Percent Recovery of whisker movement D11 / Percent Recovery of whisker movement D12 / Percent Recovery of whisker movement D13 / Percent Recovery of whisker movement D14: test compounds p.o. 20 mg/kg bid, αMSH s.c. 70 ug/each 48 hr; for Percent Recovery of whisker movement D9: % of sham-operated side; for recovery time to restore whisker muscle movement: lesioned rats vs vehicle controls (p<0.05), p.o. 20 mg/kg bid. The text has this: The ability of test compound to provide neuro-protective or neuro-regenerative effects was investigated in a facial nerve compression model. Facial nerve motor axons arise exclusively from neurons within the pons in a well-defined nucleus. Facial nerve compression results in retrograde reactions proximal to the lesion site and Wallerian degeneration at its distal part, which causes diminished whisker movement on the lesioned side.
Male Long-Evans rats (150–180 g) were anesthetized with 3–5% isoflorane for induction and 2% for maintenance during the surgical procedures. The right facial nerve was exposed and compressed with forceps for 30 sec at its exit from the stylomastoid foramen. The left facial nerve was sham-operated and served as an internal control. […] The following morphological abnormalities associated with the functional deficit were observed:
After recovery from anesthesia, the rats were randomly divided into groups for dosing with vehicle, αMSH or test compound, with 6 animals per group. αMSH (s.c., 70 ug/each 48 hr) was used as a positive control. Test compounds were dosed p.o. at 20 mg/kg bid for 14 days. Restoration of whisker movement was monitored daily after the operation using two criteria:
(1) frequency of whisker movement on the lesioned side relative to the opposite side (sham-operated) which served as the baseline control
(2) semi-quantitative measurements (0 to 4+) on strength of the whisker muscles, characterized based on observation of the percentage of moved whiskers, muscle tone of whisker muscles, and the position of the nose. For all observations, the experimental design was blind to the behavioral observer.
The recovery rate of the whisker movement was expressed as percentage of its own internal control (sham-operated), as listed in Table 8.

The subject of assay [3] is Food-Deprived Rats. Put plainly: Rodent Feeding: Food Intake in Food-Deprived Rats (MC-4). The format is in vivo, rat. Conditions: Rattus norvegicus. The text has this:
Rodent Feeding: Food Intake in Food-Deprived Rats (MC-4)
Male Long-Evans rats (180–200 grams) were housed individually and maintained on a once-a-day feeding schedule (i.e.10 a.m. until 4 p.m.) for five days following quarantine to allow the animals to acclimate to feeding on powdered chow (#5002 PMI Certified Rodent Meal) during the allotted time. The chow was made available in an open jar, anchored in the cage by a wire, with a metal follower covering the food to minimize spillage. Water was available ad-libitum.
Animals were fasted for 18 hours prior to testing. At the end of the fasting period, animals were administered either a test compound or vehicle. Vehicle and test compound were administered either orally (5 mL/kg) 60 minutes prior to the experiment, subcutaneously (1 mL/kg) 30 minutes prior to the experiment, or intraperitoneally (1 mL/kg) 30 minutes prior to the experiment. Test compounds were administered orally as a suspension in aqueous 0.5% methylcellulose-0.4% Tween 80, or intraperitoneally as a solution or suspension in PEG 200; compound concentrations typically ranged from 1 mg/kg to 100 mg/kg, preferably from 10–30 mg/kg. Food intake was measured at 2, 4, and 6 hours after administration by weighing the special jar containing the food before the experiment and at the specified times. Upon completion of the experiment, all animals were given a one-week washout period before re-testing.
Following the procedure described above, select compounds of the present invention were tested to measure the effect on food intake in fasted rats, as listed in Table 5 and 6.

The mark [4] stands for this setting: po, 2 h, po, read-out: Change in Food Intake 0–2 hrs (%).
Setting [5] is: po, 6 h, po, read-out: Change in Food Intake 2–6 hrs (%).
Setting [6] is: ip, 2 h, ip, read-out: Change in Food Intake 0–2 hrs (%).
The mark [7] stands for this setting: ip, 6 h, ip, read-out: Change in Food Intake 2–6 hrs (%).

The compound `c1ccc(CNc2nc(-c3ccccc3)[n+](-c3ccccc3)s2)cc1` [Compound 84] showed an activation at 0.05 µM in assay [1] of 17%. Moreover, in assay [2], the “Percent Recovery of whisker movement D9” value was 0%, the “Percent Recovery of whisker movement D10” value stood at 4.8%, the “Percent Recovery of whisker movement D11” value amounted to 35.1% and the “Percent Recovery of whisker movement D12” value came out at 90.0%. Further, in assay [2], the “Percent Recovery of whisker movement D13” value is listed as 98.3%, the “Percent Recovery of whisker movement D14” value is on record as 100% and the “recovery time to restore whisker muscle movement” value is on record as “accelerated the recovery time”. In addition, the change in vivo at 30 mg/kg in assay [3] (setting [4]) was -7%. Besides, in assay [3] (setting [5]), the change in vivo at 30 mg/kg worked out at 32%.

For the compound `COc1ccccc1-[n+]1sc(Nc2ccc(C)cc2)nc1-c1ccccc1.[Br-]` [Compound 31, 2-(2-methoxyphenyl)-3-phenyl-5-p-tolylamino-[1,2,4]thiadiazol-2-ium], the activation at 0.05 µM in assay [1] turned out to be 16%. In assay [2], the “Percent Recovery of whisker movement D9” value came out at 0%, the “Percent Recovery of whisker movement D10” value is given as 3.5%, the “Percent Recovery of whisker movement D11” value is recorded as 67.8% and the “Percent Recovery of whisker movement D12” value is 98.5%. In addition, in assay [2], the “Percent Recovery of whisker movement D13” value worked out at 100%, the “Percent Recovery of whisker movement D14” value was 100% and the “recovery time to restore whisker muscle movement” value is given as “accelerated the recovery time”. Besides, in assay [3] (setting [6]), the change in vivo at 1 mg/kg is -20.6% and the change in vivo at 3 mg/kg was -37.8%. Besides, in assay [3] (setting [7]), the change in vivo at 1 mg/kg is -71.2% and the change in vivo at 3 mg/kg was -50%. In assay [3] (setting [4]), the change in vivo at 1 mg/kg worked out at 1.2%, the change in vivo at 3 mg/kg was -9%, the change in vivo at 10 mg/kg is -10.1% and the change in vivo at 30 mg/kg was -23.6%. In assay [3] (setting [5]), the change in vivo at 1 mg/kg came out at 19.5%, the change in vivo at 3 mg/kg worked out at 52.1%, the change in vivo at 10 mg/kg came to 39.7% and the change in vivo at 30 mg/kg amounted to 31.5%.
